Experimental data: patent US8889861B2, “Crystalline forms of a purine derivative” (Cyclacel Limited, priority 2010, dated 2014)
Converted amounts (≈) assume the structure as drawn. “And” between values parts separate entries of the source, which are not always exact repeats. Equal entries are not always repeated. “Also recorded” adds a separate entry of the source. Where two headings read alike, the source gives them in different places.

Assays:
[1] = Gravimetric vapour sorption (GVS) / hygroscopicity; assay type: physicochemical; conditions: for mass increase (GVS): 25° C., 40-90% RH; for reversible uptake of water from 0 to 90% RH: GVS
Experimental: Gravimetric Vapour Sorption (GVS)
Sorption isotherms were obtained using a SMS DVS Intrinsic moisture sorption analyser, controlled by SMS Analysis Suite software. […] The humidity was controlled by mixing streams of dry and wet nitrogen, with a total flow rate of 200 ml. min^−1. The relative humidity was measured by a calibrated Rotronic probe (dynamic range of 1.0-100% RH), located near the sample. The weight change, (mass relaxation) of the sample as a function of % RH was constantly monitored by the microbalance (accuracy ±0.005 mg). Typically 5-20 mg of sample was placed in a tared mesh stainless steel basket under ambient conditions. The sample was loaded and unloaded at 40% RH and 25° C. (typical room conditions). A moisture sorption isotherm was performed as outlined below (2 scans giving 1 complete cycle). The standard isotherm was performed at 25° C. at 10% RH intervals over a 0.5-90% RH range.
Method Parameters for SMS DVS Intrinsic Experiments:
The sample was recovered after completion of the isotherm and re-analysed by XRPD.
Hiden Isochema Moisture Sorption Analyser (IGAsorp)
Sorption isotherms were obtained using a Hiden Isochema Moisture Sorption Analyser (IGAsorp) controlled by IGAsorp Systems Software V6.50.48. […] The humidity was controlled by mixing streams of dry and wet nitrogen, with a total flow rate of 250 ml. min^−1. The instrument was verified for relative humidity content by measuring three calibrated Rotronic salt solutions (10-50-88%). The weight change of the sample as a function of % RH was monitored by microbalance (accuracy ±0.005 mg). A defined amount of sample was placed in a tared mesh stainless steel basket under ambient conditions. A full experimental cycle consisted of two scans (sorption and desorption) at a constant temperature (25° C.) and 10% RH intervals over a 10-90% RH range (90 minutes for each humidity level).
11.254 mg of sample was placed in a tarred mesh stainless steel basket under ambient conditions. A full experimental cycle consisted of two scans (sorption and desorption) at a constant temperature (25° C.) and 10% RH intervals over a 40-90% range (180 minutes for each humidity level). The mass increase of approximately 0.09 mg (−0.8%) and the facile uptake and loss relative to humidity level indicates a non-hygroscopic sample that dampens with surface moisture only.

[2] = Storage in a humidity chamber at 25° C. (75%, 94% or 97% RH); assay type: physicochemical; conditions: for observation on storage: 25° C./97% RH, time not stated
Experimental: However, a large proportion of the peaks corresponding to compound (I) appear as broadened multiplets, probably due to the presence of the sulfonic acid group, making successful assignment non-trivial. A significant quantity of residual TBME was also visible, though this is believed to be unbound solvent rather than a solvate. XRPD analysis confirmed the material to be crystalline. […] Deliquescence of a sample of the product was observed after storage in a humidity chamber at 25° C. and 94% RH for 2 hours. […]

Storage at 40° C./75% RH = assay type: physicochemical; conditions: for 40° C./75% RH, appearance / 40° C./75% RH, XRPD: 7 d; for 40° C./75% RH, observation or form change: storage time not stated
Experimental: A new XRPD pattern corresponding to the HBr salt was obtained upon storage of HBr Pattern 1 (Form J) at 40° C./75% relative humidity.
The sample was dried in a vacuum oven at 40° C./3 mbar for 18 h to yield the L-malate (Form R) as a white solid. NMR analysis of the sample of Form R formed during the storage of Form Q at 40° C./75% RH confirmed it to be a mono-malate salt.

[3] = 24 h
Experimental: Thermodynamic Aqueous Solubility
The suspension was equilibrated at 25° C. for 24 hours then the pH was measured. The suspension was then filtered through a glass fibre C filter into a 96 well plate. The filtrate was then diluted by a factor of 101. Quantitation was by HPLC with reference to a standard solution of approximately 0.1 mg. ml^−1 in DMSO. Different volumes of the standard, diluted and undiluted sample solutions were injected.
The suspension was equilibrated at 25° C. for 24 hours. The suspension was then filtered through a filter into an HPLC vial. The filtrate was then diluted by an appropriate factor. Quantification was executed by HPLC with reference to a standard solution of 0.5 mg in 1 mL acetonitrile/water (1:1). Different volumes of the standard, diluted and undiluted sample solutions were injected.
The pH of the solution post solubility was pH 5.

[4] = Polymorph interconversion of L-tartrate Forms D and E (slurry conversion); conditions: slurry: 1:1 Form D:Form E, 45° C., 48 hours, ethyl acetate, IPA, IMS or acetonitrile
Experimental: Form E of the L-Tartrate salt of compound (I) was also prepared by slurry conversion from four different solvents (ethyl acetate, IPA, IMS or acetonitrile). A 1:1 mixture of Form by weight of D: Form E L-Tartrate salt (200 mg total) was heated at 45° C. over 48 hours in 2 ml of solvent prior to filtration and analysis.

CC[C@H](Nc1nc(NCc2cnc(C)cc2C)c2ncn(C(C)C)c2n1)[C@@H](C)O [Form L]
hygroscopicity ([1]; listed as Mesylate Pattern 1): hygroscopic | observation on storage [2]: deliquescence | 40° C./75% RH, observation (Storage at 40° C./75% RH; 15 h): 15 h - Deliquesced | 40° C./75% RH, observation (Storage at 40° C./75% RH; 15 h, listed as Mesylate Pattern 1): deliquescence | 40° C./75% RH, appearance (Storage at 40° C./75% RH): 7 d - No change | 40° C./75% RH, observation or form change (Storage at 40° C./75% RH; listed as mesylate salt): deliquescence | AQ Solubility [3]: 137 mg/mL | Aqueous solubility [3]: ~140 mg/mL

CC[C@H](Nc1nc(NCc2cnc(C)cc2C)c2ncn(C(C)C)c2n1)[C@@H](C)O [Form I]
40° C./75% RH, XRPD (Storage at 40° C./75% RH): conversion to HCl | 40° C./75% RH, appearance (Storage at 40° C./75% RH): Sticky solid | 40° C./75% RH, observation or form change (Storage at 40° C./75% RH): unstable; also recorded: conversion to HCl Pattern 1 (Form H) | AQ Solubility [3]: > 79 mg/mL

CC[C@H](Nc1nc(NCc2cnc(C)cc2C)c2ncn(C(C)C)c2n1)[C@@H](C)O [Form A]
hygroscopicity [1]: non-hygroscopic | mass increase (GVS) [1]: −0.8% | mass increase (GVS) ([1]; 11.254 mg sample): approximately 0.09 mg | XRPD of sample post GVS ([1]; GVS at 25° C.): no change

CC[C@H](Nc1nc(NCc2cnc(C)cc2C)c2ncn(C(C)C)c2n1)[C@@H](C)O [Form R]
hygroscopicity [1]: less hygroscopic than the benzensulfonate and citrate salts | reversible uptake of water from 0 to 90% RH [1]: Reversible uptake of ~2.5 wt % H2O from 0 to 90% RH

CC[C@H](Nc1nc(NCc2cnc(C)cc2C)c2ncn(C(C)C)c2n1)[C@@H](C)O [Form H]
40° C./75% RH, observation (Storage at 40° C./75% RH; 30 min): 30 min - Deliquescence | AQ Solubility [3]: 75 mg/mL

CC[C@H](Nc1nc(NCc2cnc(C)cc2C)c2ncn(C(C)C)c2n1)[C@@H](C)O [Form E]
hygroscopicity [1]: only slightly hygroscopic | Aqueous solubility [3]: 43.9 mg/mL | aqueous solubility [3]: 43.905 mg/mL (≈ 110 mM)

CC[C@H](Nc1nc(NCc2cnc(C)cc2C)c2ncn(C(C)C)c2n1)[C@@H](C)O [Form P]
hygroscopicity [1]: Non-hygroscopic, reversible uptake of | reversible uptake of water from 0 to 90% RH [1]: <0.4 wt % from 0 to 90% RH | reversible uptake of water from 0 to 90% RH ([1]; listed as Fumarate Pattern 1): less than 0.4 wt % | hygroscopicity ([1]; listed as Fumarate Pattern 1): non-hygroscopic | 40° C./75% RH, appearance (Storage at 40° C./75% RH): No visual change | AQ Solubility [3]: 54 mg/mL | Aqueous solubility [3]: approximately 50 mg. ml^−1

CC[C@H](Nc1nc(NCc2cnc(C)cc2C)c2ncn(C(C)C)c2n1)[C@@H](C)O [Form G]
hygroscopicity [1]: highly hygroscopic above 75% RH | XRPD after storage ([2]; 25° C. and 75% RH for 70 hours): consistent with that of the original product, but with a slightly larger amorphous halo | appearance after storage ([2]; 25° C. and 75% RH for 70 hours): slightly tacky | appearance after storage ([2]; 25° C. and 94% RH for 2 hours): Deliquescence

CC[C@H](Nc1nc(NCc2cnc(C)cc2C)c2ncn(C(C)C)c2n1)[C@@H](C)O [Form J]
40° C./75% RH, observation (Storage at 40° C./75% RH; 15 h): deliquescence and 15 h - Deliquescence | 40° C./75% RH, XRPD (Storage at 40° C./75% RH): conversion to a new | 40° C./75% RH, appearance (Storage at 40° C./75% RH): crystallisation was observed; also recorded: Sticky solid | 40° C./75% RH, observation or form change (Storage at 40° C./75% RH): conversion to a new Pattern—HBr Pattern 2 (Form K) | AQ Solubility [3]: > 30 mg/mL

CC[C@H](Nc1nc(NCc2cnc(C)cc2C)c2ncn(C(C)C)c2n1)[C@@H](C)O [Form Q]
hygroscopicity ([1]; listed as L-malate Pattern 1): hygroscopic | 40° C./75% RH, observation (Storage at 40° C./75% RH; 15 h): 15 h - Deliquescence | 40° C./75% RH, observation (Storage at 40° C./75% RH; 15 h, listed as L-malate Pattern 1): deliquescence | 40° C./75% RH, observation (Storage at 40° C./75% RH; 72 h): crystallisation had occurred | 40° C./75% RH, observation (Storage at 40° C./75% RH; 72 h, listed as L-malate Pattern 1): crystallisation of a new solid form | 40° C./75% RH, appearance (Storage at 40° C./75% RH): White solid | 40° C./75% RH, observation (Storage at 40° C./75% RH; inside 2 h): deliquescence | AQ Solubility [3]: 92 mg/mL

CC[C@H](Nc1nc(NCc2cnc(C)cc2C)c2ncn(C(C)C)c2n1)[C@@H](C)O [Form C]
hygroscopicity [1]: low hygroscopicity; also recorded: not hygroscopic | uptake of water between 60 and 90% RH ([1]; GVS at 25° C.): 0.5 % by weight | weight loss between 10 and 0% RH ([1]; GVS at 25° C.): 0.5%

CC[C@H](Nc1nc(NCc2cnc(C)cc2C)c2ncn(C(C)C)c2n1)[C@@H](C)O [Form F]
hydrate formation at high RH (GVS) [1]: no hydrate is formed | hygroscopicity [1]: hygroscopic above only 70% RH | XRPD after storage ([2]; 25° C. and 75% RH for 70 hours): consistent with that of the original product | appearance after storage ([2]; 25° C. and 75% RH for 70 hours): unchanged | XRPD after storage ([2]; 25° C. and 94% RH for 3 days): same pattern as obtained for the initial product, but with a significant amorphous halo | appearance after storage ([2]; 25° C. and 94% RH for 3 days): slightly tacky, though it had not deliquesced

CC[C@H](Nc1nc(NCc2cnc(C)cc2C)c2ncn(C(C)C)c2n1)[C@@H](C)O [Form M]
hygroscopicity ([1]; listed as Maleate Pattern 1): hygroscopic above 75% RH | hygroscopicity ([1]; listed as maleate salt): hygroscopic above 40° C./70% RH | observation on storage [2]: deliquescence | 40° C./75% RH, XRPD (Storage at 40° C./75% RH): consistent with Maleate | 40° C./75% RH, appearance (Storage at 40° C./75% RH): Sticky solid | 40° C./75% RH, observation or form change (Storage at 40° C./75% RH; listed as Maleate Pattern 1): sticky solid | AQ Solubility [3]: 73 mg/mL

CC[C@H](Nc1nc(NCc2cnc(C)cc2C)c2ncn(C(C)C)c2n1)[C@@H](C)O [Form D]
hydrate formation at high RH (GVS) [1]: no hydrate is formed | hygroscopicity [1]: hygroscopic only above 70% RH | XRPD after storage ([2]; 25° C. and 75% RH for 4 days): consistent with that of the original product | appearance after storage ([2]; 25° C. and 75% RH for 4 days): unchanged | XRPD after storage ([2]; 25° C. and 94% RH for 70 hours): some peaks corresponding to those in the pattern acquired for the original product, though a significant amorphous halo was also visible | appearance after storage ([2]; 25° C. and 94% RH for 70 hours): slightly tacky, though it had not deliquesced | relative stability of the L-tartrate polymorphs [4]: metastable
